Patent US10806121B2, “Animal litter containing a pheromone composition” (Sergeant's Pet Care Products, LLC, priority 2014, dated 2020)

Experiments:
cats [1] = assay: Study 1: cat litter preference, pheromone-treated litter versus control litter; format: in vivo
Description: In Study 1, four different treatments were tested: Androstenone (ANDRO); cat urinary pheromone, 3-mercapto-3-methyl-1-butanol (CAT); rabbit pheromone, 2-methylbut-2-enal (RP); and both the cat urinary pheromone and the rabbit pheromone (CAT+RP). 40 individual cats were used in this study to assess their preference to or aversion from a control litter versus a litter under one of the four treatments. Each treatment was tested with 10 cats. Litter was divided into 3 lb aliquots, and each aliquot was either used as a control or was mixed with a pheromone (or a pheromone combination) to be tested at a level of 10 μg/3-lb (or 7.3 μg/kg).
On Day 0, each cat was placed into an assigned chamber randomly placed with two litter boxes, one control and one treated. Each of the two litter boxes was weighed and the weight was recorded. The camera in the chamber was properly aligned to give a full view of the chamber and started taping on Day 0. On Day 1, 24 hours after the start of taping on Day 0, each of the two litter boxes in the chamber was weighed and the weight was recorded. On Day 2, 48 hours after the start of taping on Day 0, each of the two litter boxes in the chamber was again weighed. Litter can be disposed of after weighing on Day 2, and the camera was then turned off. The weights of the litter boxes over the 48 hours were used to determine whether the litter was used or not, and at which preference level.
The data were expressed as both a percentage preference (% of the cats using the treated litter in each treatment group) and by the weight of the litter (the litter gets heavier as it is soiled). It was expected that if the added pheromone had no effect on litter preference, 50% of the cats would use the treated litter and 50% would use the control litter. […] Further, the weight difference between a control litter or litter under treatment was used to show the relative strength of the effect of a particular treatment on cat's litter use behavior. During the study, some cats (N=3; 2 in CAT+RP and 1 in RP) spilled their litter and their data were unreliable and were not included.

cats [2] = assay: Study 3: 24-hour behavior of the most aggressive intact male cat pairs, CON litter versus RP litter; format: in vivo
Description: During the studies, cat behavior was captured on video for the duration of the 24- or 48-hour period depending on the specific study. Red lights were used at night to allow for continuous observation. A scan sampling method was used to record cat behaviors each 5 minutes. The recorded videos were subsequently reviewed and analyzed in each 5-minute scan sample, with tape playing 30 frames per second. At each 5-minute time point, each cat was categorized as anxious or relaxed. Aggression or litter box usage occurred between 5-minute periods were also noted. Because each scan sample is of 5-minute period, a total of 24 observations for each individual behavior are possible for each 2 hours. The instances of an individual behavior (An; n=1, 2, 3, . . . 24) in each 5-minute period were totaled for instances in each 2 hours (Bm=ΣAn, n=1, 2, 3, . . . 24; m=1, 2, 3, . . . 12) over 24 hours. The behavioral score for each 2-hour period is ΣAn/24 (n=1, 2, 3, . . . , 24). A behavioral score for a 24-hour period is ΣBm/12 (m=1, 2, 3, . . . 12). Among all behavior assessed, aggression, in-litter-box and anxiety were scored as yes or no during each 5 minutes (An=1 or 0; n=1, 2, 3, . . . 24). In addition, anxiety was measured as a percentage of the total time that the cat was experiencing anxiety. As such the anxiety related behavioral score for a 24-hour period is 0.347×ΣBm (%) (Bm=ΣAn(%), n=1, 2, 3, . . . 24; m=1, 2, 3, . . . 12), which reflects the percentage of time over 24 hours that the cats are experiencing anxiety. Moreover, when ranking cat pairs based on their level of aggression, the sum of the aggression scores of the individual cats in the pair was used to rank the cat pairs. Behavior data (behavioral scores) were further analyzed by Least Squares Analysis of variance using SAS (2011, SAS Inst., Inc., Cary, N.C.) software and the p-diff general linear model procedures to assess treatment differences within each time period. This statistical model included effects of treatment (TRT), cat-pair within treatment (TRT*CAT), time (HR), treatment by time (TRT*HR) and residual error (SE; used to test remaining effects). The most aggressive eight pairs of intact male cats from study 2 (Table, the pairs ranked 1 and 2-9) were selected for this 24-hour study, which was designed to assess if and how 2-methylbut-2-enal containing cat litter affects the multiple cats placed in one single room. Between studies 2 and 3, cat pairs had been separated for at least 12 weeks. Control (CON) litter and rabbit pheromone (RP) litter were similarly prepared as illustrated in Study 2. Each pair of cats was placed in a kennel containing one food dish, one water dish, and one litter box. Food and water was available ad libitum during the study. […] Side fences were chain linked. A total of 4 kennels were placed in one single room, and two rooms were utilized for eight pairs of cats. Cat behaviors were captured on video for the duration of the 24-hour period. Red lights were used at night to allow for continuous observation. The study schedule was as follows: • (1) 0 hour—Add 3 lb. aliquot of CON litter to a clean litter box and weigh the litter box; place a CON litter box in each of the 4 kennels in Room One. Before placing a designated cat pair in each of the kennels, weigh the cats. Start the video taping. • (2) 0 hour—Add 3 lb. aliquot of RP litter to a clean litter box and weigh; place RP litter boxes in 4 kennels in a separate Room Two; weigh cats; place designated pairs in kennels; and start the video taping. • (3) 24-hour—Remove and weigh all litter boxes; weigh all cats. Video records were obtained and reviewed for summary and analyses. At the 24-hour point of time, it was noted if any soiling had occurred outside of the litter box. Any social behavioral problems of the cats were also manually recorded, despite that video records provided a much more precise record of cat behaviors. Cat behavior of each pair was captured on video for the duration of the 24-hour period. […]

[3] = treated versus control litter weight after 2 days

With `C/C=C(\C)C=O` [RP, 2-methylbut-2-enal] the “increase of litter attraction” value (cats [1]; 7 out of 9 cats chose treated litter) was “more than 3.5 times”, the “percentage preference (% of the cats using the treated litter)” value (cats [1]; litter treated at 10 μg/3-lb (7.3 μg/kg), choice against control litter over 48 hours, 50% = no effect) was 78% and the “Litter Type Use, g, TRT (weights of litter after 2 days)” value (cats [1]; treated litter box, 10 μg/3-lb, SE = 0.023) was 0.76 g. The “Relative Difference, %” value (cats [1]; [3]) was 138%, the “Significantly Different” value (cats [1]; [3]) was “Yes” and the “effect on cats' litter preference” value (cats [1]; treated versus control litter, 48 hours) was “highly preferred over the control litter”. For the same molecule, the “aggression away from litter box, % of the observations” value (cats [2]; 0-2 hour period, CON litter 25%, P<0.01) was 5-6%, the “aggression near litter box, % of the observations” value (cats [2]; 0-2 hour period, CON litter more than 40%, P<0.01) was 2-3% and the “aggression away from litter box, % of the observations” value (cats [2]; 2-4 hour period, CON litter 23-24%, P<0.01) was 4%. For the same molecule, the “lying/sitting - touching versus CON litter” value (cats [2]; 6-8 hour period, P=0.07) was “tendency to sit or lie in contact”, the “anxiety versus CON litter” value (cats [2]; 8-10 hour period, P=0.06) was “tendency to be more anxious” and the “litter box use versus CON litter” value (cats [2]; 8-10 hour period, P=0.10) was “tended to use the litter box more often”. For the same molecule, the “anxiety versus CON litter” value (cats [2]; 10-12 hour period, P<0.01) was “significantly more anxious”, the “neutral social interaction versus CON litter” value (cats [2]; 10-12 hour period, P<0.01) was “significantly more neutral (non-aggressive) social interactions” and the “litter box use versus CON litter” value (cats [2]; 12-14 hour period, P<0.01) was “Cats experiencing CON litter used the litter box significantly more”. The “anxiety versus CON litter” value (cats [2]; 14-16 hour period, P=0.01) was “significantly more anxious”, the “anxiety versus CON litter” value (cats [2]; 16-18 hour period, P=0.03) was “significantly more anxious” and the “lying/sitting - touching versus CON litter” value (cats [2]; 16-18 hour period, P=0.05) was “tended to sit or lie in contact less”. For the same molecule, the “anxiety versus CON litter” value (cats [2]; 18-20 hour period, P=0.03) was “significantly more anxious”, the “litter box use versus CON litter” value (cats [2]; 18-20 hour period, P=0.03) was “Cats experiencing CON litter used the litter box significantly more” and the “lying/sitting - touching versus CON litter” value (cats [2]; 20-22 hour period, P=0.01) was “significantly higher”. For the same molecule, the “lying/sitting - touching versus CON litter” value (cats [2]; 22-24 hr period, P=0.04) was “tended to sit or lie in contact less”, the “duration of aggression control” value (cats [2]; RP in the litter around 0.0004% to 0.0006% (w/w)) was 6 to 8 h and the “Behavior score: Head in food/H2O dish” value (cats [2]; RP litter (3% (w/w) beads with 0.02% (w/w) 2-methylbut-2-enal), 24 hours, 4 cat pairs, CON 0.85, TRT P-Value 0.16) was 0.57. The “Behavior score: Grooming other” value (cats [2]; RP litter, 24 hours, 4 cat pairs, CON 0.03, TRT P-Value 0.36) was 0.00, the “Behavior score: Neutral social interaction” value (cats [2]; RP litter, 24 hours, 4 cat pairs, CON 0.10, TRT P-Value 0.82) was 0.14 and the “Behavior score: In litter box - using” value (cats [2]; RP litter, 24 hours, 4 cat pairs, CON 0.31, TRT P-Value 0.23) was 0.20. The “Behavior score: Grooming self” value (cats [2]; RP litter, 24 hours, 4 cat pairs, CON 0.56, TRT P-Value 0.90) was 0.52, the “Behavior score: Lying/sitting - touching” value (cats [2]; RP litter, 24 hours, 4 cat pairs, CON 0.73, TRT P-Value 0.92) was 0.64 and the “Behavior score: Play” value (cats [2]; RP litter, 24 hours, 4 cat pairs, CON 0.84, TRT P-Value 0.89) was 0.92. The “Behavior score: Sleeping” value (cats [2]; RP litter, 24 hours, 4 cat pairs, CON 0.95, TRT P-Value 0.59) was 0.63, the “Behavior score: In litter box - not using” value (cats [2]; RP litter, 24 hours, 4 cat pairs, CON 1.63, TRT P-Value 0.74) was 2.34 and the “Behavior score: Aggression” value (cats [2]; RP litter, 24 hours, 4 cat pairs, CON 3.55, TRT P-Value 0.37) was 2.01. For the same molecule, the “Behavior score: Locomotion” value (cats [2]; RP litter, 24 hours, 4 cat pairs, CON 5.50, TRT P-Value 0.52) was 4.34, the “Behavior score: Lying/sitting - not touching” value (cats [2]; RP litter, 24 hours, 4 cat pairs, CON 14.98, TRT P-Value 0.79) was 15.53 and the “Behavior score: Anxiety (%)” value (cats [2]; RP litter, 24 hours, 4 cat pairs, CON 17.00, TRT P-Value 0.56) was 25.00%. The “weight added to litter box” value (cats [2]; RP litter, CON cats 0.15 kg, SE=0.02 kg, change not significant, litter spilled) was 0.07 kg/day, the “overall RP treatment effect on behaviors over the full 24 hours” value (cats [2]; RP versus CON litter, all behaviors of Table 10) was “None of the behaviors evaluated over the full 24 hours were significantly changed” and the “anxiety versus CON litter” value (cats [2]; first 2 hour period, P=0.04) was “significantly less anxious”. The “aggression patterns versus CON litter” value (cats [2]; first 6 hours after cats were placed together, P<0.01) was “significantly lower”.
